Laboratory results reported in ChEMBL document CHEMBL4425142, “Inhibitors of diacylglycerol lipases in neurodegenerative and metabolic disorders” (Bioorg Med Chem Lett, 2016).
pIC50, pKi: −log10 of the molar value.

Columns and labels:
[1] = biological target: T1, Diacylglycerol lipase-beta (Mus musculus, UniProt Q91WC9); test: Inhibition of V-tagged mouse DAGLbeta expressed in […] cell membrane fractions using SAG as substrate assessed as accumulation of 2-AG preincubated for 30 mins followed by substrate addition measured after 30 mins by LC-MS natural substrate assay
T1 sequence (Q91WC9 whole entry): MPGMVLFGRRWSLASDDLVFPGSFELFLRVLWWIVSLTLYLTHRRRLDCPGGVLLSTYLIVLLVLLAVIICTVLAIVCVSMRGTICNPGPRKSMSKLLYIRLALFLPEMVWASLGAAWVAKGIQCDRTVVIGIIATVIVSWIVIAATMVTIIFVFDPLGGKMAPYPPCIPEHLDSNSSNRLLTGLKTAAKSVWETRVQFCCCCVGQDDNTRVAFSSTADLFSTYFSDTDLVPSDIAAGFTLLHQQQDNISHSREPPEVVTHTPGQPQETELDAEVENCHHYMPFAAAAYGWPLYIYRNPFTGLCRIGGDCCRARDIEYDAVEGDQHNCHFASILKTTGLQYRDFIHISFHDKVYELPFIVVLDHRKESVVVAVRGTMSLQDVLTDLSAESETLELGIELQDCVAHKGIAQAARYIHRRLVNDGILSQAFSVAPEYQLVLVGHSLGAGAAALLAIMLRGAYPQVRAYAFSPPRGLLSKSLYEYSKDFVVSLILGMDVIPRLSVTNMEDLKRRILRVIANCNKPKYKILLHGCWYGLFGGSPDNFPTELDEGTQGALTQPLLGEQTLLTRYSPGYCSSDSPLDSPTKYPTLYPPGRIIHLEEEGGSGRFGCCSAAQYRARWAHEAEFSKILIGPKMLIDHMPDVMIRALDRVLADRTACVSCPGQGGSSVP

[2] = biological target: T2, Diacylglycerol lipase-alpha (Homo sapiens, UniProt Q9Y4D2); test: Inhibition human DAGLalpha expressed in HEK293T cell membrane fractions using DAG as substrate preincubated for 30 mins followed by ABP HT01 probe addition measured after 30 mins in presence of probe by gel-based ABPP competition assay
T2 sequence (Q9Y4D2 whole entry): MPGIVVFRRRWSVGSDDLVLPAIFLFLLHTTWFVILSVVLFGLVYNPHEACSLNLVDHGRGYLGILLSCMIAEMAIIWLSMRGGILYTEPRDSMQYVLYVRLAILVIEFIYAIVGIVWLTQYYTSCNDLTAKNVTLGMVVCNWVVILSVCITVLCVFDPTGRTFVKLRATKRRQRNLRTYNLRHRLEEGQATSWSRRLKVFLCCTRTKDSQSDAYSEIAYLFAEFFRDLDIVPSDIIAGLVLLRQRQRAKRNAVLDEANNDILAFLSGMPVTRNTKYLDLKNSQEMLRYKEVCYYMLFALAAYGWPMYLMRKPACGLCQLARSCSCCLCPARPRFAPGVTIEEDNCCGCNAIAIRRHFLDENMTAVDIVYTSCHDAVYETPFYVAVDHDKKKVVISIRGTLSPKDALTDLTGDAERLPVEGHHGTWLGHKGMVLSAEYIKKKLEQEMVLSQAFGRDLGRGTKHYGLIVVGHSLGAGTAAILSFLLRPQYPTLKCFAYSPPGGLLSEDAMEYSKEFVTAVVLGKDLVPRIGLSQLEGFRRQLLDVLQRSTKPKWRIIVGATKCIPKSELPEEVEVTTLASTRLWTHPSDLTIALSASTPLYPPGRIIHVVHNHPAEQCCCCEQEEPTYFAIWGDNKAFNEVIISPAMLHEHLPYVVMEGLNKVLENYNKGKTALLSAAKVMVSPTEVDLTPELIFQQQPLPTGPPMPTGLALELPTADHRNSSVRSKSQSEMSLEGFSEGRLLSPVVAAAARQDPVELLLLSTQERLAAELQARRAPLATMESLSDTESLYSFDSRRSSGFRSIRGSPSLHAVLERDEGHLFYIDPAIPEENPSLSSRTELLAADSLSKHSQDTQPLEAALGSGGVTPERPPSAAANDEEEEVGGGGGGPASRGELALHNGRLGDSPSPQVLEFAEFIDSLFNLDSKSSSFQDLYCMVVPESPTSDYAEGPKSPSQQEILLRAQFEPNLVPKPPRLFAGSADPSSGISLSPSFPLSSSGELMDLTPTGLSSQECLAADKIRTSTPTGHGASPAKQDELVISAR

[3] = biological target: T1, Diacylglycerol lipase-beta; test: Inhibition mouse DAGLbeta expressed in HEK293T cell membrane fractions using DAG as substrate preincubated for 30 mins followed by ABP HT01 probe addition measured after 30 mins in presence of probe by gel-based ABPP competition assay
[4] = biological target: T3, Diacylglycerol lipase-alpha (Mus musculus, UniProt Q6WQJ1); test: Inhibition of DAGLalpha in mouse brain proteome pre-incubated for 30 mins followed by ABP MB064 probe addition for 15 mins by ABPP assay; assay type: subcellular
T3 sequence (Q6WQJ1 whole entry): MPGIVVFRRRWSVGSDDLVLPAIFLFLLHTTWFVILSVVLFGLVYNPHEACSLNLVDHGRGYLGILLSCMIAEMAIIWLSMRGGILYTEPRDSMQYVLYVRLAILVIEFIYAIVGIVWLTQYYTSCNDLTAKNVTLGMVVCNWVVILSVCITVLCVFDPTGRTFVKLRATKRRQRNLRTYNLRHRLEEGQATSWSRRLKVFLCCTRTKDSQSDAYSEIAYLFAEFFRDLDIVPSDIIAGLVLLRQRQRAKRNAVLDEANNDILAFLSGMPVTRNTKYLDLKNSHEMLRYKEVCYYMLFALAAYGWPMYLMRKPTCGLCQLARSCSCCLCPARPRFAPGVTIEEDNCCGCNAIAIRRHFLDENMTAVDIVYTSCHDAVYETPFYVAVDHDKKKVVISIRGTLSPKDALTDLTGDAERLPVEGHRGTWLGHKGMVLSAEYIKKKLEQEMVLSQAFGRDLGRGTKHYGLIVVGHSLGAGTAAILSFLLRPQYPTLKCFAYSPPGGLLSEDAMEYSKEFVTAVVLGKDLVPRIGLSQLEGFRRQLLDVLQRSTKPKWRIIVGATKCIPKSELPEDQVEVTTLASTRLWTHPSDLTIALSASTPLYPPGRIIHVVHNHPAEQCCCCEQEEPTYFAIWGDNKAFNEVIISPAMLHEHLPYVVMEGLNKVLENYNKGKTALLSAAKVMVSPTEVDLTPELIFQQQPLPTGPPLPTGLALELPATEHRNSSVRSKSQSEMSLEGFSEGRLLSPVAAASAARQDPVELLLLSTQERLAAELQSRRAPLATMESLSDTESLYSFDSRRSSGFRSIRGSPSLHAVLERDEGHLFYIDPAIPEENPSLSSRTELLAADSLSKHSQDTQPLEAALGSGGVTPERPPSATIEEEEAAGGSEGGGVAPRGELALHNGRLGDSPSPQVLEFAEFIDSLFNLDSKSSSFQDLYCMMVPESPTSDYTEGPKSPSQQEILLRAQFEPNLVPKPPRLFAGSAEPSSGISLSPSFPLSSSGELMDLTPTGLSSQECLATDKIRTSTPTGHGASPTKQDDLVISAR

[5] = biological target: T2, Diacylglycerol lipase-alpha; test: Inhibition of human GST-tagged DAGLalpha expressed in HEK293F cell membranes using 1-stearoyl-2-arachidonoyl-sn-glycerol as substrate preincubated for 20 mins followed by substrate addition by enzyme coupled natural substrate assay
[6] = biological target: T4, Diacylglycerol lipase-beta (Homo sapiens, UniProt Q8NCG7); test: Inhibition of human GST-tagged DAGLbeta catalytic domain expressed in HEK293F cell membranes using EnzChek as substrate preincubated for 5 mins followed by substrate addition by fluorogenic surrogate substrate assay
T4 sequence (Q8NCG7 whole entry): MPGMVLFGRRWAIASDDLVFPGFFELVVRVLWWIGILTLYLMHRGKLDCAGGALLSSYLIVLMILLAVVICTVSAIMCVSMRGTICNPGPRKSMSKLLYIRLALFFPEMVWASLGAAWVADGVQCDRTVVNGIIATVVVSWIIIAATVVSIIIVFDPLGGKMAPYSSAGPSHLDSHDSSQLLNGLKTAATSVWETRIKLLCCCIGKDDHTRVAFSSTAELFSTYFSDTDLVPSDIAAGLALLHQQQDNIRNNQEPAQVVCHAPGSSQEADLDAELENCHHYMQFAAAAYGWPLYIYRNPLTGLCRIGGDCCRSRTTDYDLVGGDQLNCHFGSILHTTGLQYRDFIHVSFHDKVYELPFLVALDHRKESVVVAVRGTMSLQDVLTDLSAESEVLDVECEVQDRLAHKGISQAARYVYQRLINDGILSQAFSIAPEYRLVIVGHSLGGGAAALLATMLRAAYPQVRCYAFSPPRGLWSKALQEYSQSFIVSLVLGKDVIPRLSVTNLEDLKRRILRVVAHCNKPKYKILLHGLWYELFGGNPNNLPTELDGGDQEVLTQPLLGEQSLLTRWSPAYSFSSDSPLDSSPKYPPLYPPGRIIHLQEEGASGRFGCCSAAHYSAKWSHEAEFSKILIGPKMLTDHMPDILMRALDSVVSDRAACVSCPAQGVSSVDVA

Cannabinoid receptor 1 = Cannabinoid receptor 1 (Homo sapiens, UniProt P21554); test: Antagonist activity at CBR1 (unknown origin)
Cannabinoid receptor 1, sequence (P21554 whole entry): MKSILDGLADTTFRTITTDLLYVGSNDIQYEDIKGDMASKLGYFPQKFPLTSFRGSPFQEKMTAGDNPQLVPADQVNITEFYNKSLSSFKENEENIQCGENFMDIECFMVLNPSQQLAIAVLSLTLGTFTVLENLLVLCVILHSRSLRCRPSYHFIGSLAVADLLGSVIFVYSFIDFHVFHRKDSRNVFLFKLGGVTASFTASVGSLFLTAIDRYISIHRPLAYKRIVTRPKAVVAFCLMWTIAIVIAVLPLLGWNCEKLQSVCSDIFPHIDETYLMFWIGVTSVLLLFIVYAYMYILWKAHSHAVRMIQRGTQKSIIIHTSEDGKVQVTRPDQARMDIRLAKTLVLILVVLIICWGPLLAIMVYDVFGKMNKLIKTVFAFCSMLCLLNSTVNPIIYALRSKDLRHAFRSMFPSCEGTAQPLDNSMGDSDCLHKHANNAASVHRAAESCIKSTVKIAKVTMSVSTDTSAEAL

[7] = biological target: T1, Diacylglycerol lipase-beta; test: Inhibition of full length 3' FLAG-tagged mouse DAGLbeta expressed in African green monkey COS7 cells using sn-1-stearoyl-[14C]-arachidonoyl-glycerol as substrate preincubated for 15 mins followed by substrate addition measured after 30 mins by radiometric natural substrate assay; assay type: cell-based
[8] = biological target: T1, Diacylglycerol lipase-beta; test: Inhibition of mouse DAGLbeta expressed in HEK293T cell membranes using SAG as substrate preincubated for 20 mins followed by substrate addition by enzyme coupled natural substrate assay
[9] = biological target: T2, Diacylglycerol lipase-alpha; test: Inhibition of human DAGLalpha expressed in HEK293T cell membrane fractions using PNP butyrate as substrate preincubated for 20 mins followed by substrate addition by colorimetric surrogate substrate assay
[10] = biological target: T2, Diacylglycerol lipase-alpha; test: Inhibition of human C-terminal HA-tagged DAGLalpha expressed in HEK293F cell membrane fractions using DiFMU-octanoate as substrate by fluorogenic surrogate substrate assay
[11] = biological target: T2, Diacylglycerol lipase-alpha; test: Inhibition of human C-terminal HA-tagged DAGLalpha expressed in HEK293F cell membrane fractions using PNP butyrate as substrate by colorimetric surrogate substrate assay

Compound	pIC50 [2]	pIC50 [3]	pIC50 [4]	other results
COc1ccccc1-c1ccc(-c2cn(C(=O)N3CCCCC3Cc3ccccc3)nn2)cc1 (stereo not drawn)	6.90	7.20		pIC50 [1]: 7.10
C#CCO[C@@H]1CC[C@H](Cc2ccccc2)N(C(=O)n2ncc(C(O)(c3ccc(F)cc3)c3ccc(F)cc3)n2)C1	8.90	8.30		
CC1(C)CCc2cc(S(=O)(=O)N(CC(=O)O)Cc3ccc(Oc4ccccc4)cc3)ccc2O1			6.90	pIC50 [5]: 6.00
O=C(N1CCCCC1Cc1ccccc1)n1cc(-c2ccc(-c3ccccc3)cc2)nn1 (stereo not drawn)	5.60	7.40		pIC50 [1]: 7.10; pIC50 [5]: 7.60
CCCCCCCCCCCC(C[C@@H]1OC(=O)[C@H]1CCCCCC)OC(=O)[C@@H](NC=O)C(C)CC (stereo partly drawn)				pIC50 [6]: 8.20; pKi (Cannabinoid receptor 1): 5.22
CC(C)(C)OC(=O)N1CCN(C(=O)n2cc(-c3ccc(OC(F)(F)F)cc3)nn2)C(Cc2ccccc2)C1 (stereo not drawn)	9.30	8.60		pIC50 [8]: 8.10
Cc1ccc(-c2cnc3nc(C(=O)CCCCCc4ccccc4)oc3c2)cc1			7.60	pIC50 [9]: 8.50
O=C(NCCCCCCNC(=O)ON=C1CCCCC1)ON=C1CCCCC1				pIC50 [10]: 4.60; pIC50 [11]: 5.30

Further lines, with some results ahead:

pIC50 [2]	pIC50 [3]	pIC50 [4]	Compound	other results
	5.70		CCCCCCCCCCCC(C[C@@H]1OC(=O)[C@H]1CCCCCC)OC(=O)[C@H](CC(C)C)NC=O (stereo partly drawn)	pIC50 [7]: 7.00
		6.30	O=C(CCCCCc1ccccc1)c1nc2ncccc2o1	
